Where only a bound is given, the exact number is not on record here.

Data set [1] in a line: Selectivity index, ratio of IC50 for cytotoxicity against human HepG2 cells to IC90 for antibacterial activity against wild type Mycobacterium tuberculosis H37Rv-LP DREAM8 strain expressing codon-optimized DsRed. It counts as toxicity, cell-based.
Data set [2] in a line: Cytotoxicity against human HepG2 cells assessed as cell growth inhibition incubated for 3 days by CellTiter-Glo reagent-based luminescence assay. It counts as toxicity. On the technique in general: Cellular ATP, detected with luciferase, serves as a proxy for viable cell number.
Data set [3] concerns Mycobacterium tuberculosis. Put plainly: Antibacterial activity against wild type Mycobacterium tuberculosis H37Rv-LP DREAM8 strain expressing codon-optimized DsRed assessed growth inhibition incubated for 5 days by fluorescence spectrophotometric assay. It counts as functional. The following applies: H37Rv-LP DREAM8, 120 h, time 5 day.
Data set [4] deals with Mycobacterium tuberculosis. Nature of the data set: Antibacterial activity against Mycobacterium tuberculosis LepB-UE strain under expressing signal peptidase LepB assessed growth inhibition incubated for 5 days by fluorescence spectrophotometric assay. It counts as functional. The following applies: 120 h, time 5 day.

One may read the IC50 as the midpoint of a concentration-inhibition curve. As a reminder, the IC90 is the concentration at which the effect reaches the 90% level. Regarding `CCC(NC(=O)c1sc2nc(-c3ccc(OC)cc3)cc(C(F)(F)F)c2c1N)c1ccccc1` (stereo not given), in data set [1], the selectivity ratio is above 135. Further, in data set [2], the IC50 at 3 days was above 100 µM. Further, the concentration for an effect of 90% (IC90) in data set [3] was 0.74 µM.

`COc1ccc(-c2cc(C(F)(F)F)c3c(N)c(C(=O)Nc4cc(C)cc(C)c4)sc3n2)cc1`: in data set [1], the selectivity ratio is below 1. Moreover, in data set [2], the IC50 at 3 days amounted to 47 µM. In data set [3], this molecule had an IC90 above 100 µM.

Turning to `COc1ccc(-c2cc(C(F)(F)F)c3c(N)c(C(=O)NCc4ccccc4C)sc3n2)cc1`, the selectivity ratio in data set [1] was 10. Further, the IC50 at 3 days in data set [2] was determined as 23 µM. In data set [3], this molecule displayed an IC90 of 2.4 µM.

In the case of `COc1ccc(-c2cc(C(F)(F)F)c3c(N)c(C(=O)Nc4cc(C)ccc4C)sc3n2)cc1`, the selectivity ratio in data set [1] was below 1. Further, the 50% inhibitory concentration (IC50) at 3 days in data set [2] was 23 µM. The same molecule registered an IC90 in data set [3] above 100 µM.

As to `COc1ccc(-c2cc(C(F)(F)F)c3c(N)c(C(=O)NC(C)c4ccccc4)sc3n2)cn1` (stereo not given), the values for the concentration for an effect of 90% (IC90) in data set [4] and in data set [3] were 0.41 µM and 1.2 µM, respectively. In addition, the IC50 at 3 days in data set [2] was 19 µM.

`COc1ccc(-c2cc(C(F)(F)F)c3c(N)c(C(=O)Nc4ccc(C)c(C)c4)sc3n2)cc1`: the selectivity ratio in data set [1] is below 1. Also, in data set [2], the concentration for half-maximal inhibition (IC50) at 3 days is 79 µM. Also, in data set [3], the 90% effect concentration (IC90) is above 100 µM.

As to `COc1ccc(-c2cc(C(F)(F)F)c3c(N)c(C(=O)NC(C)c4ccccc4)sc3n2)cc1` (stereo not given), the selectivity ratio in data set [1] is 83. Besides, the IC50 at 3 days in data set [2] came to 52 µM. This molecule gave a concentration for an effect of 90% (IC90) in data set [3] of 0.63 µM.

As to `COc1ccc(-c2cc(C(F)(F)F)c3c(N)c(C(=O)NCc4ccccc4)sc3n2)cc1`, in data set [1], the selectivity ratio is below 1. The IC50 at 3 days in data set [2] came out at 88 µM. This molecule also registered an IC90 in data set [3] above 100 µM.

Turning to `COc1ccc(-c2cc(C(F)(F)F)c3c(N)c(C(=O)NC4CC5(C4)CN(C(=O)OC(C)(C)C)C5)sc3n2)cc1`, the selectivity ratio in data set [1] was below 1. Further, in data set [2], the half-maximal inhibitory concentration (IC50) at 3 days is 12 µM. The molecule further yielded an IC90 in data set [3] above 100 µM.

Regarding `COc1ccc(-c2cc(C(F)(F)F)c3c(N)c(C(=O)NC(C)C4CCCCC4)sc3n2)cc1` (stereo not given), in data set [1], the selectivity ratio was above 91. Also, in data set [2], the IC50 at 3 days was above 100 µM. In data set [3], this molecule showed a 90% effect concentration (IC90) of 1.1 µM.

For `COc1ccc(-c2cc(C(F)(F)F)c3c(N)c(C(=O)NC45CC6CC(CC(C6)C4)C5)sc3n2)cc1`, the selectivity ratio in data set [1] was below 91. Besides, in data set [2], the IC50 at 3 days is above 100 µM. Besides, the concentration for an effect of 90% (IC90) in data set [3] was found to be 1.1 µM.

On to `COc1ccc(-c2cc(C(F)(F)F)c3c(N)c(C(=O)NCCc4ccccc4)sc3n2)cc1`, for which the selectivity ratio in data set [1] was below 1. Moreover, the 50% inhibitory concentration (IC50) at 3 days in data set [2] came to 23 µM. In data set [3], this molecule returned an IC90 above 100 µM.

Regarding `COc1ccc(-c2cc(C(F)(F)F)c3c(N)c(C(=O)NCC45CC6CC(CC(C6)C4)C5)sc3n2)cc1`, the selectivity ratio in data set [1] was below 71. Further, the IC50 at 3 days in data set [2] is above 100 µM. In data set [3], the 90% effect level (IC90) was put at 1.4 µM.

On to `COc1ccc(-c2cc(C(F)(F)F)c3c(N)c(C(=O)NCc4cccc(C)c4C)sc3n2)cc1`, for which, in data set [1], the selectivity ratio was 38. Further, the IC50 at 3 days in data set [2] was 50 µM. This molecule had a concentration for an effect of 90% (IC90) in data set [3] of 1.3 µM.

On to `COc1ccc(-c2cc(C(F)(F)F)c3c(N)c(C(=O)NC45CC6CC(CC(O)(C6)C4)C5)sc3n2)cc1`, for which, in data set [1], the selectivity ratio came to 3. The IC50 at 3 days in data set [2] came to 19 µM. Also, the 90% effect concentration (IC90) in data set [3] is 7.5 µM.

(Values after ChEMBL document CHEMBL6153157, “Novel 3-Aminothieno[2,3-b]pyridine-2-carboxamides with Activity against Mycobacterium tuberculosis” (ACS Med Chem Lett, 2025).)
